# Measured values as given in US20260083751A1, “ALLOSTERIC MODULATORS OF ANDROGEN RECEPTOR COACTIVATOR RECRUITMENT FOR CRPC THERAPY” (University of Pittsburgh – Of the Commonwealth System of …, priority 2022, published 2026).
# Values joined by “and” are separate entries in the source; they are usually repeats but may differ in a detail not shown here. Identical values can stand only once. Like-named read-outs stand apart in the source and are kept apart here.
# Legend:
# [1] = target: T1, AR-LBD PPI interactions with TIF2 and SRC1 coactivators (Homo sapiens, UniProt P10275); assay: TIF2 and SRC1 mammalian 2-hybrid assays, results stated jointly; type: cell-based; conditions: for IC50: both M2H assays
# T1 construct: AR-LBD amino acids 658-919 expressed as a fusion protein with Gal4-DBD; expressed in transfected cells; host or cells: HEK 293, transient co-transfection
# T1 sequence (P10275 659-920): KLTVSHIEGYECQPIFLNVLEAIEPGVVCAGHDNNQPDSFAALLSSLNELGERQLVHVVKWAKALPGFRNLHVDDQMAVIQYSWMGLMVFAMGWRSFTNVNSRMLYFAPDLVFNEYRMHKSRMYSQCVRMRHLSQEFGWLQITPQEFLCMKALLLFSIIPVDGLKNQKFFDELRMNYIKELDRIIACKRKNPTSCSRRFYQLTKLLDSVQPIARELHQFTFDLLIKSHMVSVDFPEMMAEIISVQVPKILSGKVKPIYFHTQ
# Excerpt: TIF2 and SRC1 Mammalian 2-Hybrid Assays: The 5×GAL4-TATA-luciferase reporter plasmid was a gift from Dr. Richard Maurer from the Oregon Health and Science University (Gonzalez et al., Cell 1989, 59:675-80), and constructs pGAL4-hAR-658-919 (AR-LBD amino acids 658-919 expressed as a fusion protein with Gal4-DBD) (Askew et al., J Biol Chem 2007, 282:25801-16), pVP16-SRC1 (full-length SRC1 expressed as a fusion with VP16 activation domain) (He et al., J Biol Chem 1999, 274:37219-25) and pVP16-Empty vectors were kindly provided to us by Dr. Elizabeth Wilson, from UNC Chapel Hill. pVP16-TIF2 was generated as described previously (Fancher et al., Assay Drug Dev Technol. 2019, 17:364-386). HEK 293 cells were transiently co-transfected with 5 ng of pGal4-AR-LBD, 10 ng of either pVP16-TIF2 or pVP16-SRC1, and 20 ng of the 5×Gal4-TATA-Luc reporter as described previously (Ibid.). HEK 293 cells were bulk co-transfected with the three plasmids that had been individually incubated with FuGENE® 6 transfection agent (Fugent LLC, Middleton, WI) at a 3:1 ratio for 25 min at room temperature (RT) in serum free media (SFM) and then combined with HEK 293 cells that were suspended in DMEM (Cellgro10013CV) with 2 mM L-glutamine (Invitrogen) that was supplemented with 10% fetal bovine serum, and 5,000 cells in a volume of 40 μL were seeded into the wells of white opaque 384-well assay plates (Greiner Bio-one, #781080) and cultured overnight at 37° C., 5% CO2, and 95% humidity. […] 25 μL of BrightGlo® reagent (Promega, Madison, WI) was added to the plate and the relative luminescence units (RLUs) were captured on a SpectraMax® M5e microtiter plate reader (Molecular Devices, LLC, San Jose, CA).
# AR-LBD = target: T2, AR-LBD (Homo sapiens, UniProt P10275); assay: H^3-DHT radioligand binding assay
# T2 construct: The pET28a-AR-LBD (622-919) construct; made in house
# T2 sequence (P10275 622-919): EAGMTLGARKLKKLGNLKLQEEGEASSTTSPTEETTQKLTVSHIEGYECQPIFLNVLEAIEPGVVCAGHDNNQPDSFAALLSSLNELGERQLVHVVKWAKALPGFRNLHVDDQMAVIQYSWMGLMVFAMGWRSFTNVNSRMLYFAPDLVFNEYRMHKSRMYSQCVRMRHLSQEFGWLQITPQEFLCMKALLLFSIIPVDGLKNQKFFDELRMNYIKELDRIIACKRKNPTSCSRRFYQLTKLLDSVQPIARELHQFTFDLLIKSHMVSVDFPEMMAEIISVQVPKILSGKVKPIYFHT
# Protocol: H^3-DHT Radioligand Binding Assay: The His6-AR-LBD H^3-DHT competition binding assay has been described previously (Fancher et al., Assay Drug Dev Technol. 2016, 14:453-477; Fancher et al., Assay Drug Dev Technol. 2019, 17:364-386). Briefly, 96-well Cu^2+-coated plates (ThermoFisher) were incubated overnight at 4° C. with 5 µg per well His6-AR-LBD in 100 μL of PBS. Unbound His6-AR-LBD was aspirated, the plate was washed 3× with 100 μL of 0.05% Tween 20 in PBS and then blocked with 100 μL of 1 mg/mL BSA in PBS for 1 h. After three more washes with 100 μL of PBS and 0.05% Tween 20, 40 μL of PBS was added to wells followed by […] each of diluted compounds and 100 nM H^3-DHT transferred into the wells using a Matrix pipettor. Compounds were tested between 0.098 to 50 μM in the presence of 10 nM H^3-DHT. After 1 h, compounds and H^3-DHT were aspirated and washed 3× with 0.05% Tween 20 in PBS; 100 μL of Microscint™-20 micro-scintillation cocktail buffer (Perkin Elmer, Waltham, MA) was added to each well, plates were sealed with adhesive plastic covers; and the counts per minute (CPMs) were captured in a TopCount NXT microtiter plate reader (Perkin Elmer, Waltham, MA).
# [2] = IC50s in TIF2 and SRC-1 M2H assays (potency range in words)
# [3] = 10 nM H^3-DHT, read-out: Inhibition H^3-DHT ligand binding to AR-LBD IC50
# [4] = read-out: IC50s, DHT-induced AR-LBD PPI interactions with TIF2 and SRC1 coactivators
# [5] = read-out: IC50 in H^3-DHT binding assay (potency range in words)
SMILES,Fold difference of M2H IC50s to IC50 for AR-TIF2 PPI disruption [1] [fold],"IC50 [1, 2] [µM]","IC50 (AR-LBD; 10 nM H^3-DHT, listed as 1, read-out: Inhibition H^3-DHT ligand binding to AR-LBD IC50) [µM]",IC50 (AR-LBD; [3]),"IC50 [1, 4] [µM]",Fold M2H IC50s less than corresponding AR-TIF2 biosensor IC50s [1] [fold],Fold lower IC50 for TIF2 than SRC1 ([1]; CoA selectivity) [fold],IC50 (AR-LBD; [5]) [µM]
Cc1ccccc1-c1cc(O)c2c(c1)CN(c1nc(C(N)=O)cs1)CCO2 [Compound S1-1],~5,1 to 10,26.7,~44 µM and ~27 µM,–,–,–,–
Cc1nc(N)cc(N2CCOc3c(O)cc(-c4ccccc4C)cc3C2)n1 [Compound S1-2],–,1 to 10,–,> 100 µM,–,–,–,–
Cc1ccccc1-c1cc(O)c2c(c1)CN(c1nccs1)CCO2 [Compound S1-3],–,1 to 10,–,> 100 µM,–,–,–,–
COc1cc(-c2ccc(C)s2)cc2c1OCCN(c1nc(C(N)=O)cs1)C2 [Compound S1-5],–,10 to 100,–,> 100 µM,20 to 42,–,–,–
Cc1nsc(NC(=O)N2CCC(Sc3ccccc3C)CC2)n1 [Compound S2-6],–,< 1,–,> 100 µM,–,~10,~5,–
Cc1c(-c2ccccc2F)[nH]c2ccc(CNC(=O)CCc3cn[nH]c3)cc12 [Compound S3-11],–,1 to 10,–,> 100 µM,< 10,–,–,–
Cc1c(-c2ccccc2F)[nH]c2ccc(CNC(=O)CCc3cnccn3)cc12 [Compound S3-12],–,1 to 10,–,> 100 µM,< 10,–,–,–
CC(=O)NCCC(=O)NCc1ccc2[nH]c(-c3ccccc3F)c(C)c2c1 [Compound S3-13],–,10 to 100,–,> 100 µM,10 to 20,–,–,–
Cc1c(-c2ccccc2F)[nH]c2ccc(CNC(=O)c3ccc(CO)o3)cc12 [Compound S3-14],–,1 to 10,–,63 µM,< 10,–,–,10 to 100
Cc1c(-c2ccc(F)cc2)[nH]c2ccc(CNC(=O)c3ccc(CO)o3)cc12 [Compound S3-15],–,1 to 10,–,> 100 µM,< 10,–,–,–
Cc1cccc2c(-c3ccc(O)c(F)c3)c[nH]c12 [Compound S3-17],–,10 to 100,–,56 µM,10 to 20,–,–,10 to 100
CNC(=O)c1ccc(-c2c[nH]c3c(C)cccc23)cc1 [Compound S3-21],–,10 to 100,–,> 100 µM,10 to 20,–,–,–
